The results in this text go back to patent publication US5300513A, “Carbostyril derivatives and pharmaceutical composition containing the same” (Otsuka Pharmaceutical Co., Ltd., priority 1990, dated 1994).

For orientation: IC50 means the concentration that inhibits the measured activity by half.

In the assay the target is T1, V1 receptor (Rattus norvegicus, UniProt P30560).
T1 construct: Using rat liver plasma membrane preparations; from tissue; host or cells: rat liver plasma membranes
Kind of assay: V1 receptor binding assay (inhibition of [3H]-Arg-vasopressin binding to rat liver plasma membrane). On the procedure: Using rat liver plasma membrane preparations prepared according to Ichihara's method [cf: Akira Ichihara, J. Bio. […] After incubation, the mixture is filtered three times using the glass filter (GF/F) so as to separate the membrane preparation combined with vasopressin and then washed with the buffer (5 ml). This glass filter is taken out and mixed with liquid scintillation cocktail. The amount of [H]^3 -vasopressin combined with the membrane is measured by liquid scintillation counter and the rate of the inhibitory effect of the test compound is estimated according to the following equation. [formula]

[1] abbreviates: rat liver plasma membrane, [H]^3-Arg-vasopressin 2×10^-10 M, 37° C., 10 minutes, pH 8.0, read-out: IC50.

Where a name gives a salt, the structure may show the parent alone. Read-outs that look alike come from different tables or passages of the source.

T1 sequence (P30560 whole entry): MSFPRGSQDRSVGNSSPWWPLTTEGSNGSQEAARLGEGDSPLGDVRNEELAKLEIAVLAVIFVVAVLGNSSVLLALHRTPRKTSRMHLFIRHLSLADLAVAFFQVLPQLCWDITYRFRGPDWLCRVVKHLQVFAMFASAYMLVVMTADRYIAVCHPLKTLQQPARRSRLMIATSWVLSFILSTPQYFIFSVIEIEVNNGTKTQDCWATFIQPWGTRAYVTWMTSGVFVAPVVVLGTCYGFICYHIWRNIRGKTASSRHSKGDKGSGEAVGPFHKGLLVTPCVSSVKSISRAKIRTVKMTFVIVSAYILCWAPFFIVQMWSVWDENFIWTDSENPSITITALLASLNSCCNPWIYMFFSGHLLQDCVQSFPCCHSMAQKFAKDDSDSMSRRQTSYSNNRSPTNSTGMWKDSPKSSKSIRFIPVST

For `O=C(c1ccc(OCCCCCNC23CC4CC(CC(C4)C2)C3)cc1)N1CCC(N2C(=O)CCc3ccccc32)CC1` [Test Compound 2, 1-{1-[4-(5-Tricyclo[3.3.1.1^3.7]decanylaminopentyloxy)benzoyl]-4-piperidinyl}-3,4-dihydrocarbostyril hydrochloride], the IC50 under setting [1] is 27 nM.

In the case of `CCOC(=O)CC(=O)OCCN(C)CCCCCOc1ccc(C(=O)N2CCC(N3C(=O)CCc4ccccc43)CC2)cc1` [Test Compound 5, 1-[1-{4-[5-[N-Methyl-N-(2-ethoxycarbonylacetyloxyethyl)amino}pentyloxy]benzoyl}-4-piperidinyl]-3,4-dihydrocarbostyril], the IC50 under setting [1] is 110 nM.

With `C=CCNCC(O)CCCCOc1ccc(C(=O)N2CCC(N3C(=O)CCc4ccccc43)CC2)cc1` (stereo not drawn) [Test Compound 6, 1-{1-[4-(5-Hydroxy-6-allylaminohexyloxy)benzoyl]-4-piperidinyl}-3,4-dihydrocarbostyril], under setting [1], the IC50 worked out at 140 nM.

Consider `O=C(c1ccc(-n2ccnc2-c2ccccc2)cc1)N1CCC(N2C(=O)CCc3ccccc32)CC1` [Test Compound 20, 1-{1-[4-(2-Phenyl-1-imidazolyl)benzoyl]-4-piperidinyl}-3,4-dihydrocarbostyril], for which the IC50 under setting [1] came to 2800 nM.

As to `O=C(c1ccc(-c2ccccn2)cc1)N1CCC(N2C(=O)CCc3ccccc32)CC1` [Test Compound 13, 1-{1-[4-(2-Pyridyl)benzoyl}-4-piperidinyl}-3,4-dihydrocarbostyril], the IC50 under setting [1] is 1200 nM.

For the compound `C=CCSc1ccc(C(=O)N2CCC(N3C(=O)CCc4ccccc43)CC2)c(OC)c1` [Test Compound 16, 1-[1-(2-Methoxy-4-allylthiobenzoyl)-4-piperidinyl]-3,4-dihydrocarbostyril], the IC50 came out at 110 nM.

Consider `O=C(c1ccc(OCCCCCNCC(F)(F)F)cc1)N1CCC(N2C(=O)CCc3ccccc32)CC1` [Test Compound 4, 1-[1-{4-[5-(2,2,2-Trifluoroethylamino)-pentyloxy)benzoyl}-4-piperidinyl}-3,4-dihydrocarbostyril], for which, under setting [1], the IC50 was 320 nM.

In the case of `O=C(c1ccc(SCCCCCN2CCCC2)cc1)N1CCC(N2C(=O)CCc3ccccc32)CC1` [Test Compound 12, 1-[1-{4-[5-(1-Pyrrolidinyl)pentylthio]-benzoyl}-4-piperidinyl]-3,4-dihydrocarbostyril], under setting [1], the IC50 came to 34 nM.

In the case of `Nc1ccccc1Sc1nccn1-c1ccc(C(=O)N2CCC(N3C(=O)CCc4ccccc43)CC2)cc1` [Test Compound 15, 1-[1-{4-[2-(2-Aminophenylthio)-1-imidazolyl]-benzoyl}-4-piperidinyl]-3,4-dihydrocarbostyril], the IC50 under setting [1] was 800 nM.

As for `CC(=O)NC1CCN(CCCCCOc2ccc(C(=O)N3CCC(N4C(=O)CCc5ccccc54)CC3)cc2)CC1` [Test Compound 9, 1-[1-{4-[5-(4-Acetylamino-1-piperidinyl)-pentyloxy)benzoyl}-4-piperidinyl]-3,4-dihydrocarbostyril], the half-inhibitory concentration (IC50) under setting [1] was 36 nM.

Take `O=C(c1ccc(OCCCCCN2CCC(NC(=O)C(F)(F)F)CC2)cc1)N1CCC(N2C(=O)CCc3ccccc32)CC1` [Test Compound 8, 1-[1-{4-[5-(4-Trifluoroacetylamino-1-piperidinyl)pentyloxy]benzoyl}-4-piperidinyl]-3,4-dihydrocarbostyril]: the IC50 under setting [1] turned out to be 63 nM.

`O=C(c1ccc(S(=O)(=O)CCCCCN2CCCC2)cc1)N1CCC(N2C(=O)CCc3ccccc32)CC1` [Test Compound 18, 1-[1-{4-[5-(1-Pyrrolidinyl)pentylsulfonyl]-benzoyl}-4-piperidinyl]-3,4-dihydrocarbostyril]: the IC50 under setting [1] stood at 1900 nM.

For `O=C(c1ccc(-c2nc3ccccc3[nH]2)cc1)N1CCC(N2C(=O)CCc3ccccc32)CC1` [Test Compound 19, 1-{1-[4-(2-Benzimidazolyl)benzoyl]-4-piperidinyl}-3,4-dihydrocarbostyril], under setting [1], the IC50 stood at 2100 nM.

Take `NC1CCN(CCCCCOc2ccc(C(=O)N3CCC(N4C(=O)CCc5ccccc54)CC3)cc2)CC1` [Test Compound 7, 1-[1-{4-[5-(4-Amino-1-piperidinyl)pentyloxy)-benzoyl-}-4-piperidinyl]-3,4-dihydrocarbostyril]: the IC50 under setting [1] was 28 nM.

Consider `O=C(c1ccc(OCCCCCNCC23CC4CC(CC(C4)C2)C3)cc1)N1CCC(N2C(=O)CCc3ccccc32)CC1` [Test Compound 3, 1-{1-[4-(5-Tricyclo[3.3.1.1^3.7]decanylmethylaminopentyloxy)benzoyl]-4-piperidinyl}-3,4-dihydrocarbostyri], for which, under setting [1], the half-inhibitory concentration (IC50) came out at 100 nM.

As to `CCN(CC)CC(CCCCOc1ccc(C(=O)N2CCC(N3C(=O)CCc4ccccc43)CC2)cc1)OC(=O)NC` (stereo not drawn) [Test Compound 10, 1-{1-[4-(5-Methylaminocarbonyloxy-6-diethylaminohexyloxy)benzoyl]-4-piperidinyl}-3,4-dihydrocarbostyril], the IC50 under setting [1] is 38 nM.

As for `O=C(c1ccc(OCCCCCN2CCC3(CCCCC3)CC2)cc1)N1CCC(N2C(=O)CCc3ccccc32)CC1` [Test Compound 1, 1-[1-{4-[5-(Cyclohexanespiro-4'-(1-piperidinyl))pentyloxy]benzoyl}-4-piperidinyl]-3,4-dihydrocarbostyril], the IC50 under setting [1] was found to be 47 nM.

With `O=C(c1ccc([S+]([O-])CCCCCN2CCCC2)cc1)N1CCC(N2C(=O)CCc3ccccc32)CC1` (stereo not drawn) [Test Compound 17, 1-[1-{4-[5-(1-Pyrrolidinyl)pentylsulfinyl)-benzoyl}-4-piperidinyl]-3,4-dihydrocarbostyril], the IC50 under setting [1] amounted to 3000 nM.

Consider `COc1ccc(-c2nccn2-c2ccc(C(=O)N3CCC(N4C(=O)CCc5ccccc54)CC3)cc2)cc1` [Test Compound 21, 1-[1-{4-[2-(4-Methoxyphenyl)-1-imidazolyl]-benzoyl}-4-piperidinyl]-3,4-dihydrocarbostyril], for which the IC50 under setting [1] was determined as 2700 nM.

Take `CCOc1ccc(C(=O)N2CCC(N3C(=S)CCc4ccccc43)CC2)c(OC)c1` [Test Compound 11, 1-[1-(2-Methoxy-4-ethoxybenzoyl)-4-piperidinyl]-3,4-dihydrothiocarbostyril]: the half-inhibitory concentration (IC50) under setting [1] came out at 730 nM.

For `O=C(c1ccc(-c2ncc[nH]2)cc1)N1CCC(N2C(=O)CCc3ccccc32)CC1` [Test Compound 14, 1-{1-[4-(2-Imidazolyl)benzoyl}-4-piperidinyl}-3,4-dihydrocarbostyril], under setting [1], the IC50 was determined as 1400 nM.
